Target: T1, PATELLIN2 (PATL2) (Arabidopsis thaliana, UniProt Q56ZI2)
T1 construct: Strep-tagged PATL2 (full length), recombinant from E. coli
T1 sequence (Q56ZI2 2-683): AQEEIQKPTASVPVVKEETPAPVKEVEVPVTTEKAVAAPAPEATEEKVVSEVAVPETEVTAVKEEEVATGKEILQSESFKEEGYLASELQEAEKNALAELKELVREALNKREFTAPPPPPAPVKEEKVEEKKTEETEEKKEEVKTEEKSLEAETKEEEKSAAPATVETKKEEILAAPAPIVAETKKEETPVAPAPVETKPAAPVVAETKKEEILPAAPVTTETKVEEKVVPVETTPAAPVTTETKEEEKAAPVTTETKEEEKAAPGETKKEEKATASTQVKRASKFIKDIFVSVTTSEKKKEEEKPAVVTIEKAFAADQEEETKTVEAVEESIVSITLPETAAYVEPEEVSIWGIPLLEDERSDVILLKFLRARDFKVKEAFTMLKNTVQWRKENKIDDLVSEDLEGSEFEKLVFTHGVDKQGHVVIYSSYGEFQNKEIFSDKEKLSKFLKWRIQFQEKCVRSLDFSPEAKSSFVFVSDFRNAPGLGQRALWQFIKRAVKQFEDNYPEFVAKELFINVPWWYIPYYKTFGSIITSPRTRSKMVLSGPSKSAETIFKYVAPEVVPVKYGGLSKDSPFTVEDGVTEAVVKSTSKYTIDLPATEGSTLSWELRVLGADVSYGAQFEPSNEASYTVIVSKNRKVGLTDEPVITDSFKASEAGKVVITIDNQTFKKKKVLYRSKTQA
Test: spectrofluorimetric titration of NBD fluorescence with […] purified protein
Format: binding

Substance: NBD-α-tocopherol [NBD-Toc]
- Kd: 86 nM
